How the values were obtained:
[1] = target: T1, Farnesyl-protein transferase from bovine brain (partially purified enzyme preparation) (Bos taurus, UniProt P29702+P49355); test: Competition of Ras farnesylation by polyisoprenoids and peptides (Hepes-buffered assay, immunoprecipitation and nitrocellulose filtration); type: biochemical; details: for competition of the farnesylation reaction (in words): 0.5 µM [3H]FPP and 1 µM Ras; for IC50: [Leu68]RAS1(term.)CVLS at 1 µM, 0.5 µM [3H]FPP, 10 min at 24° C, average of 2-5 determinations, >> = no competition at the highest concentration tested
T1 construct: the indicated compounds were incubated with this partially purified enzyme preparation; from tissue; host or cells: bovine brain; chromatographed on DEAE-Sephacel and N-octyl agarose
Protocol: Enzyme reactions were analyzed by SDS-PAGE (sodium dodecyl sulfate/polyacrylamide gel electrophoresis) or immunoprecipitation. For gel analysis, each labeling reaction was boiled for 3 min in buffer containing 1% SDS/100 mM Tris-Cl, pH 6.8/10% glycerol/1% 2-mercaptoethanol, and loaded directly on 13.7% polyacrylamide gels. Radiolabeled Ras was visualized by autoradiography after fluorographic enhancement with Enlightning (New England Nuclear). For immunoprecipitation of radiolabelled Ras, reactions were first extracted with Triton X-114 using a modification of the procedure of Bordier (J. Biol. Chem. 256:1604-1607(1981). An aliquot (150 µl) of 1% Triton X-114 (Pierce) was added to the 50 µl reaction mix to achieve a final Triton X-114 concentration of 0.75%. Following 10 min. on ice, the tubes were transfered to a 37°C bath for 3 min. The cloudy solution was then centrifuged at 10,000 x g for 5 min. at room temperature. The upper aqueous phase was removed, and the detergent phase was diluted by the addition of 150 µl cold phosphate-buffed saline plus 150 µl of Ras monoclonal antibody Y13-259 coupled to Sepharose-protein A beads (Gutierrez et al. EMBO J. 8:1093-1098(1989) and Hancock et al. Cell 57:1167-1177(1989).
Farnesyl-protein transferase from bovine brain was chromatographed on DEAE-Sephacel (Pharmacia, 0-0.8 M NaCl gradient elution) and N-octyl agarose (Sigma, 0-0.6 M NaCl gradient elution). […] Reactions were analyzed by immunoprecipitation without the Triton X-114 extraction step followed by Nitrocellulose filtration.

[2] = target: bovine brain farnesylprotein transferase activity (Bos taurus, UniProt P29702+P49355); test: Apparent Km estimation for farnesylation of Ras, varying [14C]FPP and [Leu61]Ha Ras concentration; type: biochemical; details: [14C]FPP varied 0.03-30 µM, [Leu61]Ha Ras varied 0.03-250 µM; estimated
Protocol: Polyisoprenylation of Ras⁻ [³H]mevalonic acid (35 Ci/mmol) and [³H]farnesyl-PPi(FPP) FPP (20 Ci/mmol) were purchased from New England Nuclear. [¹⁴C]FPP (49.7 mCi/mmol) was prepared enzymatically from partially purified prenyl transferase, [4-¹⁴C]isopentyl-PPi (47.9 mCi/mmol, Amersham), and geranyl-PPi. Reactions contained 280 pmol (10 µCi) of [³H]mevalonic acid, 500 pmol (0.025 µCi) of [¹⁴C]FPP or 25 pmol (0.5 µci) of [³H]FPP. In a standard 50 µl reaction, 250 pmol of Ras purified from E. coli (Gibbs et al. Proc. Natl. Acad. Sci. USA 86:6630-6634(1989)) was added to 35 µl of rabbit reticulocyte lysate (Promega, L4210) or a tissue extract (100,00 x g supernatant, 10 mg/ml). Buffer conditions were adjusted by the addition of one-tenth volume of 500 mM Tris-Cl, pH 8.0/50 mM MgCl₂ or one-tenth volume of 500 mM NaHepes, pH 7.5/50 mM MgCl₂/50mM dithiothreitol. In the Tris-buffered assay, the reactions were incubated for 1 hour at 24°C. Reaction velocities in the Hepes buffered assays were at least four times greater, and incubations were for 10 minutes at 24°C. Tissue extracts were prepared as described previously [(ethylenebis(oxyethylenenitrilo)]tetra-acetic acid in buffer containing 50 mM Tris-Cl, pH 8.0/1 mM EGTA/1 mM MgCl₂/1 mM dithiothreitol/10 µl/ml aprotinin/0.5 mM phenylmethlysulfonyl fluoride. […]

CC(C)=CCC/C(C)=C/CC/C(C)=C/CC/C(C)=C/COP(=O)(O)OP(=O)(O)O [Geranylgeranyl-PPi]
competition of the farnesylation reaction (in words) [1]: potently inhibited
IC50 [1]: 1.4 µM

CC(C)=CCC/C(C)=C/COP(=O)(O)OP(=O)(O)O [Geranyl-PPi]
IC50 [1]: 67 µM

CC(C)=CCC/C(C)=C/CC/C(C)=C/COP(=O)(O)OP(=O)(O)O [Farnesyl-PPi]
Km [2]: 0.3 µM
competition of the farnesylation reaction (in words) [1]: potently inhibited
IC50 [1]: 0.7 µM

S-(trans, trans) farnesyl-CVIM
IC50 [1]: 1.4 µM

Cys-Val-Leu-Ser (CVLS; printed: Cys-Val-Leu-Ser)
IC50 [1]: 2.2 µM

CC(C)=CCOP(=O)(O)OP(=O)(O)O [Dimethylallyl-PPi]
IC50 [1]: 325 µM

CC(C)=CCCC(C)=CCCC(C)=CCO [Farnesol]
competition of the farnesylation reaction (in words) [1]: inactive
IC50 [1]: > 100 µM

CC(C)=CCC/C(C)=C/CC/C(C)=C/CC/C(C)=C/CO [Geranylgeraniol]
competition of the farnesylation reaction (in words) [1]: inactive
IC50 [1]: > 100 µM

S-(trans, trans) farnesyl-CVLS
IC50 [1]: 28 µM
